Values joined by “and” are separate entries in the source; they are usually repeats but may differ in a detail not shown here. Equal entries are not always repeated. Toxic doses and inconclusive results are not listed.
Tested on: L1210 leukemia ip in BDF1 mice, survival T/C
Experiment: NCI In Vivo Anticancer Drug Screen. Data for tumor model L1210 Leukemia (intraperitoneal) in B6D2F1 (BDF1) mice
Details: endpoint: mean survival time, higher = longer survival
Outline: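 Transplantable tumor model; survival measured in treated vs vehicle control mice. Value = treated/control.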

[1] = dose: 50.0 mg/kg/injection, schedule: Q01DX009 (ip), vehicle: Klucel (hydroxypropylcellulose) (HPC)
[2] = dose: 100.0 mg/kg/injection, schedule: Q01DX009 (ip), vehicle: Klucel (hydroxypropylcellulose) (HPC)
[3] = dose: 100.0 mg/kg/injection, schedule: Q04DX003 (ip), vehicle: Klucel (hydroxypropylcellulose) (HPC)
[4] = dose: 200.0 mg/kg/injection, schedule: Q01DX009 (ip), vehicle: Klucel (hydroxypropylcellulose) (HPC)
[5] = dose: 200.0 mg/kg/injection, schedule: Q04DX003 (ip), vehicle: Klucel (hydroxypropylcellulose) (HPC)
[6] = dose: 400.0 mg/kg/injection, schedule: Q04DX003 (ip), vehicle: Klucel (hydroxypropylcellulose) (HPC)
[7] = dose: 100.0 mg/kg/injection, schedule: Q04DX003 (ip), vehicle: saline
[8] = dose: 200.0 mg/kg/injection, schedule: Q04DX003 (ip), vehicle: saline
[9] = dose: 400.0 mg/kg/injection, schedule: Q04DX003 (ip), vehicle: saline
[10] = dose: 100.0 mg/kg/injection, schedule: Q01DX009 (ip), vehicle: saline
[11] = dose: 200.0 mg/kg/injection, schedule: Q01DX009 (ip), vehicle: saline
[12] = dose: 400.0 mg/kg/injection, schedule: Q01DX009 (ip), vehicle: saline
[13] = dose: 100.0 mg/kg/injection, schedule: Q04DX002 (ip), vehicle: Klucel (hydroxypropylcellulose) (HPC)
[14] = dose: 200.0 mg/kg/injection, schedule: Q04DX002 (ip), vehicle: Klucel (hydroxypropylcellulose) (HPC)
[15] = dose: 400.0 mg/kg/injection, schedule: Q04DX002 (ip), vehicle: Klucel (hydroxypropylcellulose) (HPC)
[16] = dose: 100.0 mg/kg/injection, schedule: Q04DX002 (ip), vehicle: saline
[17] = dose: 200.0 mg/kg/injection, schedule: Q04DX002 (ip), vehicle: saline
[18] = dose: 400.0 mg/kg/injection, schedule: Q04DX002 (ip), vehicle: saline

With `O=NN(CCCl)C(=O)Nc1cccc(O)c1` the T/C (dose: 4.5 mg/kg/injection, schedule: Q01DX009 (ip), vehicle: other) was 123 % of control, the T/C (dose: 7.0 mg/kg/injection, schedule: Q01DX009 (ip), vehicle: other) was 176 % of control and the T/C (dose: 11.0 mg/kg/injection, schedule: Q01DX009 (ip), vehicle: other) was 155 % of control. The T/C (dose: 17.0 mg/kg/injection, schedule: Q01DX009 (ip), vehicle: carboxymethylcellulose (CMC)) was 170 % of control, the T/C (dose: 17.0 mg/kg/injection, schedule: Q01DX009 (ip), vehicle: other) was 154 % of control and the T/C (dose: 26.0 mg/kg/injection, schedule: Q01DX009 (ip), vehicle: carboxymethylcellulose (CMC)) was 210 % of control. For the same compound, the T/C (dose: 26.0 mg/kg/injection, schedule: Q01DX009 (ip), vehicle: other) was 184 % of control, the T/C (dose: 30.0 mg/kg/injection, schedule: Q01DX001 (ip), vehicle: carboxymethylcellulose (CMC)) was 154 % of control and the T/C (dose: 40.0 mg/kg/injection, schedule: Q01DX009 (ip), vehicle: carboxymethylcellulose (CMC)) was 156 % of control. For the same compound, the T/C (dose: 40.0 mg/kg/injection, schedule: Q01DX009 (ip), vehicle: other) was 170 % of control, the T/C (dose: 60.0 mg/kg/injection, schedule: Q01DX001 (ip), vehicle: carboxymethylcellulose (CMC)) was 154 % of control and 168 % of control and the T/C (dose: 60.0 mg/kg/injection, schedule: Q01DX009 (ip), vehicle: other) was 121 % of control. For the same compound, the T/C (dose: 75.0 mg/kg/injection, schedule: Q01DX001 (ip), vehicle: carboxymethylcellulose (CMC)) was 118 % of control.
`c1ccc(CC2NCCc3c2[nH]c2ccccc32)cc1` (stereo not given) was tested, and the T/C (dose: 25.0 mg/kg/injection, schedule: Q01DX009 (ip), vehicle: Klucel (hydroxypropylcellulose) (HPC)) was 104 % of control, the T/C (dose: 25.0 mg/kg/injection, schedule: Q04DX003 (ip), vehicle: Klucel (hydroxypropylcellulose) (HPC)) was 92 % of control and the T/C [1] was 103 % of control. For the same compound, the T/C [2] was 93 % of control, the T/C [3] was 89 % of control and the T/C [4] was 108 % of control. For the same compound, the T/C [5] was 97 % of control and the T/C [6] was 97 % of control.
In the case of `N#CC(NC(=O)NCCO)c1ccccc1` (stereo not given), the T/C (dose: 100.0 mg/kg/injection, schedule: Q04DX003 (ip), vehicle: saline with Tween-80) is reported as 107 % of control, the T/C (dose: 200.0 mg/kg/injection, schedule: Q04DX003 (ip), vehicle: saline with Tween-80) is reported as 96 % of control and the T/C (dose: 400.0 mg/kg/injection, schedule: Q04DX003 (ip), vehicle: saline with Tween-80) is reported as 101 % of control.
With `CN1C(=O)C(c2ccccc2)(c2ccccc2)C(Br)=C1c1ccccc1` the T/C (dose: 50.0 mg/kg/injection, schedule: Q01DX001 (ip), vehicle: saline) was 107 % of control, the T/C (dose: 100.0 mg/kg/injection, schedule: Q01DX001 (ip), vehicle: saline) was 91 % of control and the T/C (dose: 200.0 mg/kg/injection, schedule: Q01DX001 (ip), vehicle: saline) was 96 % of control. The T/C (dose: 400.0 mg/kg/injection, schedule: Q01DX001 (ip), vehicle: saline) was 102 % of control.
For `CN1CN(C2CCCCC2)CSC1=S`, the T/C (dose: 100.0 mg/kg/injection, schedule: Q01DX001 (ip), vehicle: acetone) was 95 % of control, the T/C (dose: 100.0 mg/kg/injection, schedule: Q04DX003 (ip), vehicle: acetone) was 101 % of control and the T/C [7] was 101 % of control. The T/C (dose: 200.0 mg/kg/injection, schedule: Q01DX001 (ip), vehicle: acetone) was 92 % of control, the T/C (dose: 200.0 mg/kg/injection, schedule: Q04DX003 (ip), vehicle: acetone) was 106 % of control and the T/C [8] was 102 % of control. The T/C (dose: 400.0 mg/kg/injection, schedule: Q01DX001 (ip), vehicle: acetone) was 100 % of control, the T/C (dose: 400.0 mg/kg/injection, schedule: Q04DX003 (ip), vehicle: acetone) was 94 % of control and the T/C [9] was 98 % of control.
For `CCCC(C(CC)CNC(=O)Nc1cccc2ccccc12)N(C)C(=O)Nc1cccc2ccccc12` (stereo not given), the T/C (dose: 50.0 mg/kg/injection, schedule: Q01DX001 (ip), vehicle: carboxymethylcellulose (CMC)) was 109 % of control, the T/C (dose: 100.0 mg/kg/injection, schedule: Q01DX001 (ip), vehicle: carboxymethylcellulose (CMC)) was 102 % of control and the T/C (dose: 200.0 mg/kg/injection, schedule: Q01DX001 (ip), vehicle: carboxymethylcellulose (CMC)) was 103 % of control. For the same compound, the T/C (dose: 400.0 mg/kg/injection, schedule: Q01DX001 (ip), vehicle: carboxymethylcellulose (CMC)) was 96 % of control.
`C\C(=C/C(=N/N=C/c1ccco1)c1ccccc1)c1ccccc1` was tested, and the T/C (dose: 75.0 mg/kg/injection, schedule: Q01DX001 (ip), vehicle: saline) was 103 % of control and the T/C (dose: 150.0 mg/kg/injection, schedule: Q01DX001 (ip), vehicle: saline) was 104 % of control.
With `CC(=O)CC(=O)N1CCN(C(=O)CC(C)=O)CC1` the T/C [10] was 100 % of control, the T/C [11] was 96 % of control and the T/C [12] was 100 % of control.
`COc1ccc(OC)c(-n2cccc2C(=O)O)c1` was tested, and the T/C [13] was 90 % of control, the T/C [14] was 97 % of control and the T/C [15] was 93 % of control.
With `C=CCCCCCCCCC(=O)NCCCC(OCC)OCC` the T/C [7] was 106 % of control, the T/C [8] was 95 % of control and the T/C [9] was 95 % of control.
In the case of `O=C(Nc1cccc(C(=O)O)c1)Nc1cccc(C(F)(F)F)c1`, the T/C [2] is reported as 86 % of control and the T/C [4] is reported as 86 % of control.
`Cc1cc(C)c(OCC2CO2)c(C)c1` (stereo not given) was tested, and the T/C [3] was 105 % of control, the T/C [5] was 95 % of control and the T/C [6] was 89 % of control.
For `Clc1nc(SC2=NCCN2)c2[nH]cnc2n1`, the T/C (dose: 10.0 mg/kg/injection, schedule: Q01DX009 (ip), vehicle: saline with Tween-80) was 108 % of control, the T/C (dose: 12.5 mg/kg/injection, schedule: Q01DX009 (ip), vehicle: saline with Tween-80) was 102 % of control and the T/C (dose: 12.5 mg/kg/injection, schedule: Q04DX003 (ip), vehicle: saline with Tween-80) was 106 % of control. For the same compound, the T/C (dose: 20.0 mg/kg/injection, schedule: Q01DX009 (ip), vehicle: saline with Tween-80) was 101 % of control, the T/C (dose: 25.0 mg/kg/injection, schedule: Q01DX009 (ip), vehicle: saline with Tween-80) was 104 % of control and the T/C (dose: 25.0 mg/kg/injection, schedule: Q04DX003 (ip), vehicle: saline with Tween-80) was 106 % of control. For the same compound, the T/C (dose: 40.0 mg/kg/injection, schedule: Q01DX009 (ip), vehicle: saline with Tween-80) was 100 % of control, the T/C (dose: 50.0 mg/kg/injection, schedule: Q01DX009 (ip), vehicle: saline with Tween-80) was 113 % of control and the T/C (dose: 50.0 mg/kg/injection, schedule: Q04DX003 (ip), vehicle: saline with Tween-80) was 107 % of control.
For `c1ccc(-c2oc(-c3ccccc3)c3c2CCCC3)cc1`, the T/C [2] was 100 % of control, the T/C [4] was 98 % of control and the T/C (dose: 400.0 mg/kg/injection, schedule: Q01DX009 (ip), vehicle: Klucel (hydroxypropylcellulose) (HPC)) was 98 % of control.
For `CCCCCCC(=O)N1C(C)CCC1C` (stereo not given), the T/C [16] was 88 % of control, the T/C [17] was 94 % of control and the T/C [18] was 102 % of control.
For `Cc1cnc2cc(Cl)ccc2n1`, the T/C [1] was 94 % of control, the T/C [2] was 93 % of control and the T/C [3] was 102 % of control. For the same compound, the T/C [4] was 107 % of control and the T/C [5] was 96 % of control.
In the case of `O=C1OC(c2ccc(Cl)cc2)=N/C1=C\c1ccc(Cl)c(Cl)c1`, the T/C [16] is reported as 106 % of control, the T/C [17] is reported as 92 % of control and the T/C [18] is reported as 100 % of control.
For `COc1cc(Cl)ccc1NC(=S)Nc1ccccc1`, the T/C [13] was 97 % of control, the T/C [14] was 101 % of control and the T/C [15] was 97 % of control.
In the case of `CC(=O)OCC(O)CO` (stereo not given), the T/C [10] is reported as 102 % of control, the T/C [11] is reported as 96 % of control and the T/C [12] is reported as 102 % of control.
`CCOCCC(O)CC` (stereo not given) was tested, and the T/C [10] was 98 % of control, the T/C [7] was 90 % of control and the T/C [11] was 98 % of control. For the same compound, the T/C [8] was 88 % of control, the T/C [12] was 98 % of control and the T/C [9] was 89 % of control.
With `CC1CCOP(=O)(Sc2ccccc2)O1` (stereo not given) the T/C (dose: 75.0 mg/kg/injection, schedule: Q04DX002 (ip), vehicle: Klucel (hydroxypropylcellulose) (HPC)) was 102 % of control, the T/C [13] was 106 % of control and the T/C (dose: 150.0 mg/kg/injection, schedule: Q04DX002 (ip), vehicle: Klucel (hydroxypropylcellulose) (HPC)) was 113 % of control. The T/C [14] was 109 % of control.
With `CC1=CC(=Nc2ccc(N(CCCl)CCCl)cc2)C=CC1=O` the T/C [1] was 110 % of control.
`O=[N+]([O-])c1cc2c(c([N+](=O)[O-])c1)OCOC2` was tested, and the T/C [7] was 100 % of control, the T/C [8] was 97 % of control and the T/C [9] was 107 % of control.

— PubChem BioAssay AID248 (DTP/NCI, 2004)
